In US12441703B2, “Carboxamides as modulators of sodium channels” (VERTEX PHARMACEUTICALS INCORPORATED, priority 2019, dated 2025):

biological target: human NaV 1.8 (Homo sapiens, UniProt Q9Y5Y9); assay: E-VIPR assay for detecting and measuring NaV inhibition properties; assay type: cell-based; conditions: E-VIPR assay conducted in the presence of human serum; HEK cells expressing truncated human NaV 1.8; read-out: IC50
Outline: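 Membrane-potential (coumarin/oxonol) readout after 10 s of 10 Hz biphasic electrical stimulation on E-VIPR. Compounds: 11-point 3-fold dilutions, […], 0.625% DMSO, 30 min at room temperature, human serum optional. Cells: HEK expressing truncated human NaV1.8 co-transduced with KIR2.1.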

human NaV 1.8, sequence (Q9Y5Y9 whole entry, looked up, the tested form may be a part): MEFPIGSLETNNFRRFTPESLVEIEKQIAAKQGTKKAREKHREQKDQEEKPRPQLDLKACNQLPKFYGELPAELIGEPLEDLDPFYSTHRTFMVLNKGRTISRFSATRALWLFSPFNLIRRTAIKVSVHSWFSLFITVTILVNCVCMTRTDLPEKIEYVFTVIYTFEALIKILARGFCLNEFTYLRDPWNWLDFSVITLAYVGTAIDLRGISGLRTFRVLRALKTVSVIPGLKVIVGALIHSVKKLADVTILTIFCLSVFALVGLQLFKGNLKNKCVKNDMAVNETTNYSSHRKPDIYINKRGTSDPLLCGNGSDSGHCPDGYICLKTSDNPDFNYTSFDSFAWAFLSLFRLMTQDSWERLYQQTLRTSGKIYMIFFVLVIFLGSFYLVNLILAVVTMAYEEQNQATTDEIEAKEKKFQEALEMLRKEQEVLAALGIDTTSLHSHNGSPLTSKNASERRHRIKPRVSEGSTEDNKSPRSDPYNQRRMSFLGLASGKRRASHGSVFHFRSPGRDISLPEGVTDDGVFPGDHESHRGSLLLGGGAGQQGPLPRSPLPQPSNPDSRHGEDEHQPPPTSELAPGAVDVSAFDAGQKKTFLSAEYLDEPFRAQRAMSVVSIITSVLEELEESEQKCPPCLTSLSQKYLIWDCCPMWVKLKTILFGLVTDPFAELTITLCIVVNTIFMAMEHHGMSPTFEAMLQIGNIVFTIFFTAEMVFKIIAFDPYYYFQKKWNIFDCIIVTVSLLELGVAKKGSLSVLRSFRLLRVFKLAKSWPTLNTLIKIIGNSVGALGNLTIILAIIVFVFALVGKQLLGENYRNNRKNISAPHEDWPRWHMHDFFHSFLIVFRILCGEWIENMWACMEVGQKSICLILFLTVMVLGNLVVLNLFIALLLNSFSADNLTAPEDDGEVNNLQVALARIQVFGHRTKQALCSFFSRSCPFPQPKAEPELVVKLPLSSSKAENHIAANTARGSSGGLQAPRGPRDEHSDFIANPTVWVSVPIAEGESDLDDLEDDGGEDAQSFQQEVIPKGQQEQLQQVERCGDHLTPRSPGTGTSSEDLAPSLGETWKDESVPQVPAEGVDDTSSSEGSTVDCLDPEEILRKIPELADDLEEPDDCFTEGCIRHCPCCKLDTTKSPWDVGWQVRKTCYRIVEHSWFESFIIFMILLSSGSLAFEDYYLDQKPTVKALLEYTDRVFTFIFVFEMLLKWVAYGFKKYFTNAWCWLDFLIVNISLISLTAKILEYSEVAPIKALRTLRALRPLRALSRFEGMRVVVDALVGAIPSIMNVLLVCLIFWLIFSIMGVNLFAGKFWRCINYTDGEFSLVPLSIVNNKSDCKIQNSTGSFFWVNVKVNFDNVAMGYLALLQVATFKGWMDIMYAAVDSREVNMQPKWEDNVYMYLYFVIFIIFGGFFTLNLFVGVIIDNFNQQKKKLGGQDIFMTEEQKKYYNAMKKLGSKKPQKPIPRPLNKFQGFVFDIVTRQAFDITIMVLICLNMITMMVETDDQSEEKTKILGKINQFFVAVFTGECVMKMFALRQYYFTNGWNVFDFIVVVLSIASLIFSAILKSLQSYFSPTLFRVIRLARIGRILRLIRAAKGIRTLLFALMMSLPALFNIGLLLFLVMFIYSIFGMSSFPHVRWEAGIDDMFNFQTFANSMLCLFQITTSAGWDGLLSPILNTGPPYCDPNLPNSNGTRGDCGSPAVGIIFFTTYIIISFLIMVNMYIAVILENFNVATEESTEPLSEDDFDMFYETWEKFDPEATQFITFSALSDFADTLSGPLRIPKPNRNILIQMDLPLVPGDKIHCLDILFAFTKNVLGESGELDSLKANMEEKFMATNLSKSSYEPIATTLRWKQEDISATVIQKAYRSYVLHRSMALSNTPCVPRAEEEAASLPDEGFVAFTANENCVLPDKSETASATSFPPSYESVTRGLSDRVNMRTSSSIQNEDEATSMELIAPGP

IC50 [nM] | SMILES
83 | Cc1c(C(F)(F)F)ccc(Oc2ccc(OC(F)(F)F)cc2F)c1C(=O)Nc1ccnc(C(N)=O)c1 [Compound 128, 4-[[6-[2-fluoro-4-(trifluoromethoxy)phenoxy]-2-methyl-3-(trifluoromethyl)benzoyl]amino]pyridine-2-carboxamide]
20 | Cc1cc(F)ccc1Oc1ccc(C(F)(F)F)c(C)c1C(=O)Nc1ccnc(C(N)=O)c1 [Compound 129, 4-[[6-(4-fluoro-2-methyl-phenoxy)-2-methyl-3-(trifluoromethyl)benzoyl]amino]pyridine-2-carboxamide]
40 | CCOc1ccc(Oc2ccc(C(F)(F)F)c(C)c2C(=O)Nc2ccnc(C(N)=O)c2)c(F)c1F [Compound 130, 4-[[6-(4-ethoxy-2,3-difluoro-phenoxy)-2-methyl-3-(trifluoromethyl)benzoyl]amino]pyridine-2-carboxamide]
155 | Cc1c(C(F)(F)F)ccc(Oc2ccc(F)cc2F)c1C(=O)Nc1ccnc(C(N)=O)c1 [Compound 131, 4-[[6-(2,4-difluorophenoxy)-2-methyl-3-(trifluoromethyl)benzoyl]amino]pyridine-2-carboxamide]
> 3000 | Cc1c(C(F)(F)F)ccc(Oc2ccc(OC(C)C)cc2F)c1C(=O)Nc1ccnc(C(N)=O)c1 [Compound 132, 4-[[6-(2-fluoro-4-isopropoxy-phenoxy)-2-methyl-3-(trifluoromethyl)benzoyl]amino]pyridine-2-carboxamide]
9 | Cc1cc(OC(F)(F)F)ccc1Oc1ccc(C(F)(F)F)c(C)c1C(=O)Nc1ccnc(C(N)=O)c1 [Compound 133, 4-[[2-methyl-6-[2-methyl-4-(trifluoromethoxy)phenoxy]-3-(trifluoromethyl)benzoyl]amino]pyridine-2-carboxamide]
120 | COc1cc(Cl)ccc1Oc1ccc(C(F)(F)F)c(C)c1C(=O)Nc1ccnc(C(N)=O)c1 [Compound 134, 4-[[6-(4-chloro-2-methoxy-phenoxy)-2-methyl-3-(trifluoromethyl)benzoyl]amino]pyridine-2-carboxamide]

Continued, compound first:

SMILES | IC50 [nM]
Cc1c(C(F)(F)F)ccc(Oc2ccc(OC(C)C)c(F)c2F)c1C(=O)Nc1ccnc(C(N)=O)c1 [Compound 121, 4-[[6-(2,3-difluoro-4-isopropoxy-phenoxy)-2-methyl-3-(trifluoromethyl)benzoyl]amino]pyridine-2-carboxamide] | 16
Cc1c(C(F)(F)F)ccc(Oc2ccc(F)cc2Cl)c1C(=O)Nc1ccnc(C(N)=O)c1 [Compound 122, 4-[[6-(2-chloro-4-fluoro-phenoxy)-2-methyl-3-(trifluoromethyl)benzoyl]amino]pyridine-2-carboxamide] | 25
Cc1c(C(F)(F)F)ccc(Oc2ccc(OC(F)(F)F)cc2)c1C(=O)Nc1ccnc(C(N)=O)c1 [Compound 123, 4-[[2-methyl-6-[4-(trifluoromethoxy)phenoxy]-3-(trifluoromethyl)benzoyl]amino]pyridine-2-carboxamide] | 53
Cc1c(C(F)(F)F)ccc(Oc2ccc(OC(C)C)c(Cl)c2)c1C(=O)Nc1ccnc(C(N)=O)c1 [Compound 124, 4-[[6-(3-chloro-4-isopropoxy-phenoxy)-2-methyl-3-(trifluoromethyl)benzoyl]amino]pyridine-2-carboxamide] | 16
Cc1c(C(F)(F)F)ccc(Oc2ccc(F)c3c2OCC3)c1C(=O)Nc1ccnc(C(N)=O)c1 [Compound 125, 4-[[6-[(4-fluoro-2,3-dihydrobenzofuran-7-yl)oxy]-2-methyl-3-(trifluoromethyl)benzoyl]amino]pyridine-2-carboxamide] | 140
Cc1c(C(F)(F)F)ccc(Oc2ccc(F)c(F)c2)c1C(=O)Nc1ccnc(C(N)=O)c1 [Compound 126, 4-[[6-(3,4-difluorophenoxy)-2-methyl-3-(trifluoromethyl)benzoyl]amino]pyridine-2-carboxamide] | 180
Cc1c(C(F)(F)F)ccc(Oc2ccc(F)c(Cl)c2)c1C(=O)Nc1ccnc(C(N)=O)c1 [Compound 127, 4-[[6-(3-chloro-4-fluoro-phenoxy)-2-methyl-3-(trifluoromethyl)benzoyl]amino]pyridine-2-carboxamide] | 150
